Data as given in ChEMBL document CHEMBL4346703, “Structure Overhaul Affords a Potent Purine PI3Kδ Inhibitor with Improved Tolerability” (J Med Chem, 2019).
pIC50: −log10 of the molar value.

How the values were obtained:
[1] = Inhibition of adenosine transporter in human HeLa cells assessed as reduction in [3H]adenosine uptake preincubated for 30 mins followed by [3H]adenosine addition and measured after 60 mins; type: ADME, cell-based
[2] = target: PI3-kinase p110-alpha/p85-alpha (Homo sapiens, UniProt P42336); test: Inhibition of N-terminal His6-tagged recombinant full length human p110alpha/untagged recombinant full length human p85alpha expressed in baculovirus infected Sf21 insect cells using PIP2 as substrate preincubated for 15 mins followed by substrate addition and measured after 1 hr by HTRF assay
[3] = target: PI3-kinase p110-delta/p85-alpha (Homo sapiens, UniProt O00329); test: Inhibition of N-terminal His6-tagged recombinant full length human p110delta/untagged recombinant full length human p85alpha expressed in baculovirus infected Sf21 insect cells using PIP2 as substrate preincubated for 15 mins followed by substrate addition and measured after 1 hr by HTRF assay
[4] = Protein binding in Beagle dog plasma; type: ADME, cell-free, Canis lupus familiaris; details: read-out: PPB (converted)
[5] = Half-life in Beagle dog; type: ADME, Canis lupus familiaris; details: in vivo
[6] = Lipophilicity, log D of the compound; type: physicochemical; details: octanol/water
[7] = Intrinsic clearance in Wistar Han rat at 0.5 mg/kg, iv or 1 mg/kg, po; type: ADME, organism-based; details: in vivo
[8] = Half-life in Wistar Han rat; type: ADME; details: in vivo
[9] = Volume of distribution in Beagle dog; type: ADME, Canis lupus familiaris; details: in vivo
[10] = Oral bioavailability in Wistar Han rat; type: ADME, organism-based; details: in vivo
[11] = Unbound volume of distribution in Beagle dog; type: ADME, Canis lupus familiaris; details: in vivo
[12] = Plasma clearance in Wistar Han rat at 0.5 mg/kg, iv or 1 mg/kg, po; type: ADME, organism-based
[13] = Intrinsic clearance in Beagle dog at 0.05 mg/kg; type: ADME, organism-based, Canis lupus familiaris; details: in vivo
[14] = target: T1, Phosphatidylinositol 4,5-bisphosphate 3-kinase catalytic subunit delta isoform (Homo sapiens, UniProt O00329); test: Inhibition of PI3Kdelta in human Ramos cells assessed as reduction in anti-IgM-antibody-induced phosphorylation of AKT at Ser473 residue preincubated for 20 mins followed by anti-IgM antibody stimulation and measured after 30 mins by alphascreen assay; type: cell-based
T1 sequence (O00329 whole entry): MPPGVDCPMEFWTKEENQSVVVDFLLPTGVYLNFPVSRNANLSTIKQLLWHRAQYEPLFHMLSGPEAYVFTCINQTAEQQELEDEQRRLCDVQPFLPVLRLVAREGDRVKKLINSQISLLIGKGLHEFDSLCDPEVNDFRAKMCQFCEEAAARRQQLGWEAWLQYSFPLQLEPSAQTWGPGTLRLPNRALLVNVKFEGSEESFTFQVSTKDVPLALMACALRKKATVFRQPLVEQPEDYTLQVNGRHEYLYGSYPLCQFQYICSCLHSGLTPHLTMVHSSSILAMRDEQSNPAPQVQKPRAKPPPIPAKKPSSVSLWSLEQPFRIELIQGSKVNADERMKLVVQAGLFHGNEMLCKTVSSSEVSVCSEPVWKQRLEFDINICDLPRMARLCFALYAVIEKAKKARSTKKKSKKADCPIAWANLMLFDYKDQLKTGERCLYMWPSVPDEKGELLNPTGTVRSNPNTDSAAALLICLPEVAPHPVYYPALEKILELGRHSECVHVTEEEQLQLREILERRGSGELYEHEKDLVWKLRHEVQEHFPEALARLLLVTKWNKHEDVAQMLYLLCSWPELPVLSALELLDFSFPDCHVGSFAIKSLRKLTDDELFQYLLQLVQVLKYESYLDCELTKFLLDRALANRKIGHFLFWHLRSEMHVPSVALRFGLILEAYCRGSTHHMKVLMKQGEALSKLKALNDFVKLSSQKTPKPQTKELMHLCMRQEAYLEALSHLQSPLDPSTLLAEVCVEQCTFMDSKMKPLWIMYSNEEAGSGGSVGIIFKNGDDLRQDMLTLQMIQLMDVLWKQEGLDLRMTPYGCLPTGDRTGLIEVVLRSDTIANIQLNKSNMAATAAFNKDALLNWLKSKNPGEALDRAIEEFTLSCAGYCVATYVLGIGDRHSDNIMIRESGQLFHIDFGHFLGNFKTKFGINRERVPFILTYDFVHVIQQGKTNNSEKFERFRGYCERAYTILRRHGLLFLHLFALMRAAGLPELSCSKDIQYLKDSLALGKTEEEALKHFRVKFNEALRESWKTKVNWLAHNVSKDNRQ

[15] = Volume of distribution in Wistar Han rat; type: ADME; details: in vivo
[16] = Protein binding in Wistar Han rat plasma; type: ADME, cell-free; details: read-out: PPB (converted)
[17] = Unbound volume of distribution in Wistar Han rat; type: ADME; details: in vivo
[18] = Plasma clearance in Beagle dog at 0.05 mg/kg; type: ADME, organism-based, Canis lupus familiaris
Homo sapiens = species on record: Homo sapiens; test: Selectivity ratio of IC50 for N-terminal His6-tagged recombinant full length human p110alpha/untagged recombinant full length human p85alpha expressed in baculovirus infected Sf21 insect cells to IC50 for N-terminal His6-tagged recombinant full length human p110delta/untagged recombinant full length human p85alpha expressed in baculovirus infected Sf21 insect cells
[19] = Intrinsic clearance in Wistar Han rat at 0.05 mg/kg; type: ADME, organism-based; details: in vivo
[20] = Plasma clearance in Wistar Han rat at 0.05 mg/kg; type: ADME, organism-based

Chain of PI3-kinase p110-alpha/p85-alpha (P27986 whole entry): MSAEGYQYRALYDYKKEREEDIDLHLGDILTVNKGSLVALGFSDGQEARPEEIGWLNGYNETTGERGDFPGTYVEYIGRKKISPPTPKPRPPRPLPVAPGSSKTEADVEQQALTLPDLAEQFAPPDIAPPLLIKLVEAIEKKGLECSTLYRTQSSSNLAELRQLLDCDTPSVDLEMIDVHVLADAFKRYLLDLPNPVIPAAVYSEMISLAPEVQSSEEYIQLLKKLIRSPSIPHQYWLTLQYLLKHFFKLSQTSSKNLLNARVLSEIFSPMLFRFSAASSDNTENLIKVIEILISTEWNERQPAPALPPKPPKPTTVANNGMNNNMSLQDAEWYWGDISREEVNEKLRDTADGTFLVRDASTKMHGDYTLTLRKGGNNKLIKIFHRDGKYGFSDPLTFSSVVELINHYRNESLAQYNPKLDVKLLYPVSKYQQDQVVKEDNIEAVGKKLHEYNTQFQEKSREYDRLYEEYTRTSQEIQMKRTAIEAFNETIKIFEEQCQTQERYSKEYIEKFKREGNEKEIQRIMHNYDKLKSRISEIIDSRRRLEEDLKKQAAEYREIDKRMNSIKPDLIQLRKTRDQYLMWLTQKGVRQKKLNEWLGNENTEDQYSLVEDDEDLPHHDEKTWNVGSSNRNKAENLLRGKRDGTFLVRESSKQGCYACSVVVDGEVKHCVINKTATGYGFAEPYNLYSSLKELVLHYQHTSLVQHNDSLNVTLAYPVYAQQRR
Chain of PI3-kinase p110-alpha/p85-alpha (P42336 whole entry): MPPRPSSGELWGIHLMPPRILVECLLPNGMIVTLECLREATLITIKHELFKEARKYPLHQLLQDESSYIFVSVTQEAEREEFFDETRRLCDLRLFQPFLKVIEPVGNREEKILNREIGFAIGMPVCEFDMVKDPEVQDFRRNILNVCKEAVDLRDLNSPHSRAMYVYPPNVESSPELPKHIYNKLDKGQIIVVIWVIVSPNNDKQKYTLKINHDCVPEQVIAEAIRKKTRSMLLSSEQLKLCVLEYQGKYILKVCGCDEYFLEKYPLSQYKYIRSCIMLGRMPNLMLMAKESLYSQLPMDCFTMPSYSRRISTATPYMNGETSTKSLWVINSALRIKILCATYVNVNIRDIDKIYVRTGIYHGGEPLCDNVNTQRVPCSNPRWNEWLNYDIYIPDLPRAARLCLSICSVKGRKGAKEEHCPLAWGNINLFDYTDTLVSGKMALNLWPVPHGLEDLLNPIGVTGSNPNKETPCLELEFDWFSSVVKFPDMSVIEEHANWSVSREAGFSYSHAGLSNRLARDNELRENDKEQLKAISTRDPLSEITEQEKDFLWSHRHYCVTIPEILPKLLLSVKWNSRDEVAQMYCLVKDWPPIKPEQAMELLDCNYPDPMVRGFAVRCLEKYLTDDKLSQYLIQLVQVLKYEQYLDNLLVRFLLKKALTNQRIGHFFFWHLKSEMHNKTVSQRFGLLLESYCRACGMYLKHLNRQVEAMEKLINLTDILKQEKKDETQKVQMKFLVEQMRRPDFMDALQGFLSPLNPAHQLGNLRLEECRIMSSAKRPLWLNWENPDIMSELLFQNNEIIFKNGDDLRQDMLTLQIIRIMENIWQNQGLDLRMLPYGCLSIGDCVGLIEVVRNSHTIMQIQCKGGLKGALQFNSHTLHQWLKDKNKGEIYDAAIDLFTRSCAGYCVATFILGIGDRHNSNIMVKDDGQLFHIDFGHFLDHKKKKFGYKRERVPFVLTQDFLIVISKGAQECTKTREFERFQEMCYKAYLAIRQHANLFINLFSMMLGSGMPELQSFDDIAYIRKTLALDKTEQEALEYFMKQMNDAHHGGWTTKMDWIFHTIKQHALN
Chain of PI3-kinase p110-delta/p85-alpha (P27986 whole entry, one chain of several): as the sequence (P27986 whole entry) above

With `CCC(=O)N1CCC(Nc2ncnc3c2nc(-c2cnn(CC)c2C)n3C)CC1` as the compound, how does the pIC50 [1] read?
The pIC50 was < 5.00.

What about the pIC50 [2] of the same compound?
Its pIC50 is 5.92.

What about the pIC50 [3] of the same compound?
The pIC50 was 6.10.

With `CCn1ncc(-c2nc3c(O[C@H]4CCN(C(=O)C5CC5)C4)ncnc3n2C)c1C` as the compound, how does the fraction unbound [4] read?
The fraction unbound was 0.59.

And the half-life [5]?
The half-life was 162 min.

And the logD [6]?
The logD was 1.2.

And the CL [7]?
The CL was 98 mL/min/kg.

And the pIC50 [1]?
Its pIC50 is 5.13.

What about the half-life [8] of the same compound?
The half-life was 24 min.

What about the Vd [9] of the same compound?
Its Vd is 0.9 L/kg.

And the bioavailability [10]?
The bioavailability was 52%.

And the Vdu [11]?
The Vdu was 2 L/kg.

What about the clearance [12] of the same compound?
The clearance was 23 mL/min/kg.

And the CL [13]?
The CL was 8 mL/min/kg.

What about the pIC50 [14] of the same compound?
Its pIC50 is 6.72.

What about the Vd [15] of the same compound?
The Vd was 0.8 L/kg.

What about the fraction unbound [16] of the same compound?
The fraction unbound was 0.33.

And the pIC50 [2]?
Its pIC50 is 6.77.

And the Vdu [17]?
The Vdu was 2 L/kg.

What about the pIC50 [3] of the same compound?
The pIC50 was 8.28.

And the clearance [18]?
Its clearance is 4.1 mL/min/kg.

With `CCn1ncc(-c2nc3c(CC4CCN(C(=O)C5CCOCC5)C4)ncnc3n2C)c1C` (racemic) as the compound, how does the pIC50 [1] read?
The pIC50 was < 5.00.

And the pIC50 [14]?
Its pIC50 is 5.08.

And the pIC50 [2]?
The pIC50 was < 5.00.

And the pIC50 [3]?
The pIC50 was 6.53.

With `CCCN1CC[C@H](Nc2ncnc3c2nc(-c2cnn(CC)c2C)n3C)C1` as the compound, how does the pIC50 [1] read?
Its pIC50 is 5.59.

What about the pIC50 [14] of the same compound?
The pIC50 was 5.89.

What about the pIC50 [2] of the same compound?
The pIC50 was 5.88.

Which Ratio IC50 (Homo sapiens) does the source give for `CCn1ncc(-c2nc3c(NC4CN(C(=O)C5CCOCC5)C4)ncnc3n2C)c1C` here?
The Ratio IC50 was 28.

What about the pIC50 [1] of the same compound?
Its pIC50 is < 5.00.

What about the pIC50 [14] of the same compound?
The pIC50 was 5.56.

And the pIC50 [2]?
Its pIC50 is 6.34.

With `CCn1ncc(-c2nc3c(N[C@@H](C)C(=O)N4CCOCC4)ncnc3n2C)c1C` as the compound, how does the pIC50 [1] read?
Its pIC50 is 5.18.

What about the pIC50 [14] of the same compound?
The pIC50 was 6.14.

What about the pIC50 [2] of the same compound?
Its pIC50 is 6.39.

What about the pIC50 [3] of the same compound?
The pIC50 was 7.62.

With `CCn1ncc(-c2nc3c(Oc4csc(C(=O)N5CCOCC5)c4)ncnc3n2C)c1C` as the compound, how does the pIC50 [1] read?
The pIC50 was 5.35.

What about the pIC50 [14] of the same compound?
The pIC50 was 6.01.

And the pIC50 [2]?
Its pIC50 is 5.53.

And the pIC50 [3]?
The pIC50 was 7.17.

With `CCn1ncc(-c2nc3c(S[C@H]4CCN(C(=O)C5CCOCC5)C4)ncnc3n2C)c1C` as the compound, how does the pIC50 [1] read?
Its pIC50 is 5.85.

And the pIC50 [14]?
Its pIC50 is 6.24.

And the pIC50 [2]?
The pIC50 was 6.22.

What about the pIC50 [3] of the same compound?
Its pIC50 is 7.82.

Which results are given for `CCn1ncc(-c2nc3c(NC4CCN(CC(C)C)C4=O)ncnc3n2C)c1C` (racemic)?
pIC50 [1]: 5.15; pIC50 [14]: 5.08; pIC50 [2]: 5.75; pIC50 [3]: 5.87

Which fraction unbound [4] does the source give for `CC[C@H](Nc1ncnc2c1nc(-c1cnn(CC)c1C)n2C)C(=O)N1C[C@@H](C)O[C@@H](C)C1` here?
The fraction unbound was 0.42.

What about the half-life [5] of the same compound?
Its half-life is 72 min.

What about the logD [6] of the same compound?
The logD was 1.7.

And the pIC50 [1]?
The pIC50 was 5.50.

And the CL [19]?
The CL was 290 mL/min/kg.

And the half-life [8]?
Its half-life is 18 min.

What about the clearance [20] of the same compound?
Its clearance is 50 mL/min/kg.

And the Vd [9]?
The Vd was 0.9 L/kg.

And the Vdu [11]?
Its Vdu is 2 L/kg.

What about the CL [13] of the same compound?
Its CL is 25 mL/min/kg.

What about the Vd [15] of the same compound?
The Vd was 1.1 L/kg.

And the fraction unbound [16]?
Its fraction unbound is 0.42.

And the pIC50 [2]?
The pIC50 was 6.58.

What about the Vdu [17] of the same compound?
Its Vdu is 3 L/kg.

What about the clearance [18] of the same compound?
The clearance was 7.9 mL/min/kg.
